Values after ≈ are worked out from the molar mass of the structure shown.
Columns and labels:
A. fumigatus AF293 = experiment: MIC80 broth microdilution; type: cell-based; conditions: Aspergillus fumigatus, 80% growth inhibition, RPMI-1640
Source text: (§1) Fluconazole, an ergosterol inhibitor, and the beta-1,3-glucan inhibitor micafungin served as controls (See Tables 1 and 2).
(§2) The minimum inhibitory concentrations resulting in 80% growth inhibition (MIC of multiple Candida species (Candida albicans, Candida tropicalis, Candida, guilliermondii, Candida glabrata, Candida lusitaniae, Candida parapsilois, Candida neoformans, Candida krusei, and Candida apicola) as well as Aspergillus fumigatus to a set of formula (II), (III), (IV), and (V) was determined in accordance with the guidelines in CLSI document M27-A2 (Clinical and Laboratory Standards Institute; Wayne, Pa.). The total volume of cells and drug was 100 μL per microtiter well, and each drug was diluted in RPMI to achieve final concentrations of 0.2-100 μg/ml. Uninoculated cultures were used as a reference standard. Stock inoculum suspensions were prepared from 24 hour cultures on YPD (yeast extract/peptone/dextrose) media at 30° C.
(§3) For MIC determinations, an inoculum of 1.0×10^3 cells of Candida and 2.0×10^3 cells of Aspergillus per well were used, and cells in diluted drugs were prepared in RPMI-1640 medium. MICs were determined both visually and spectrophotometrically at 24 hours and 48 h at 550 nm using a micro plate reader. The MIC80 endpoint was measured as the lowest drug concentration resulting in a reduction of growth of 80% or more compared with growth of the control.

A. fumigatus H11-20 = experiment: MIC80 broth microdilution; type: cell-based; conditions: Aspergillus fumigatus, H1120, 80% growth inhibition, RPMI-1640
Source text: as §1, §2, §3

MDR A. fumigatus = experiment: MIC80 broth microdilution; type: cell-based; conditions: Aspergillus fumigatus, 80% growth inhibition, RPMI-1640
Source text: as §1, §2, §3

C. guilliermondii = experiment: MIC80 broth microdilution; type: cell-based, Candida guilliermondii; conditions: Meyerozyma guilliermondii, 80% growth inhibition, RPMI-1640
Source text: as §1, §2, §3

C. glabrata = experiment: MIC80 broth microdilution; type: cell-based, Candida glabrata; conditions: Nakaseomyces glabratus, 80% growth inhibition, RPMI-1640
Source text: as §1, §2, §3

C. parapsilosis = experiment: MIC80 broth microdilution; type: cell-based, Candida parapsilosis; conditions: Lodderomyces parapsilosis, 80% growth inhibition, RPMI-1640
Source text: as §1, §2, §3

C. lusitaniae = experiment: MIC80 broth microdilution; type: cell-based, Candida lusitaniae; conditions: Clavispora lusitaniae, 80% growth inhibition, RPMI-1640
Source text: as §1, §2, §3

C. apicola = experiment: MIC80 broth microdilution; type: cell-based, Candida apicola; conditions: Starmerella apicola, 80% growth inhibition, RPMI-1640
Source text: as §1, §2, §3

C. krusei = experiment: MIC80 broth microdilution; type: cell-based, Candida krusei; conditions: Pichia kudriavzevii, 80% growth inhibition, RPMI-1640
Source text: as §1, §2, §3

C. neoformans H99 = experiment: MIC80 broth microdilution; type: cell-based, Candida neoformans; conditions: Cryptococcus neoformans, 80% growth inhibition, RPMI-1640
Source text: as §1, §2, §3

C. neoformans JEC-21 = experiment: MIC80 broth microdilution; type: cell-based, Candida neoformans; conditions: Cryptococcus neoformans, JEC21, 80% growth inhibition, RPMI-1640
Source text: as §1, §2, §3

C. albicans (CaMDR) = experiment: MIC80 broth microdilution; type: cell-based; conditions: Candida albicans, read-out: Activity (MIC80)
Source text: as §1, §2, §3

C. albicans (SC5314) = experiment: MIC80 broth microdilution; type: cell-based; conditions: Candida albicans, 80% growth inhibition, RPMI-1640, read at 24 and 48 h
Source text: as §1, §2, §3

C. tropicalis = experiment: MIC80 broth microdilution; type: cell-based; conditions: Candida tropicalis, 80% growth inhibition, RPMI-1640
Source text: as §1, §2, §3

HepG2 liver cell = experiment: MTT toxicity assay; type: cell-based, human; conditions: MTT after 24 hours and 48 hours
Description: (§4) The MTT assay is a colorimetric assay that measures the reduction of yellow 3-(4,5-dimethythiazol-2-yl)-2,5-diphenyl tetrazolium bromide (MTT) by mitochondrial succinate dehydrogenase. The MIT enters the cells and passes into the mitochondria where it is reduced to an insoluble, dark purple, formazan product. The cells are then solubilized with an organic solvent (e.g., isopropanol) and the released, solubilized formazan reagent is measured spectrophotometrically. Since reduction of MTT can only occur in metabolically active cells, the level of activity is a measure of the viability of the cells.
(§5) Cells of the HepG2 liver cell, NIH/3T3 fibrolast cell, or 293T kidney cell were seeded in a 96 well plate. The plate was incubated overnight at 37° C. in a humidified incubator, 5% CO2. Compounds of formula (II), (III), (IV), (V), and (VI) were added to the plate. Different concentrations of drug were tested in triplicate along with a negative control. The final volume was adjusted to 100 μl per well. The plate was incubated overnight at 37° C. in a humidified incubator, 5% CO2. After 24 hours and 48 hours, MTT reagent (5 mg/ml, 10 μl/100 μl per well of the 96 well plate) was added and incubated at 37° C. for 3 hours. After 3 hours, 100 μl of the DMSO solution was added to each well and the plate was rocked at room temperature for 1 hour. The plate was then read on a plate reader at […]. The results are shown below in tables 1 and 2.

293T kidney cell = experiment: MTT toxicity assay; type: cell-based; conditions: MTT after 24 hours and 48 hours
Description: as §4, §5

NIH/3T3 Fibroblast cell = experiment: MTT toxicity assay; type: cell-based; conditions: MTT after 24 hours and 48 hours
Description: as §4, §5

C. albicans (wild type) = experiment: E-test of formula (II) and fluconazole; type: cell-based, Candida albicans; conditions: fluconazole E test strips on YPD plate, 48 h at 30° C.
Description: E test strips (Biomerieux) containing a graded series of fluconazole concentration are placed on a YPD plate that had been previously inoculated to confluency with C. albicans. The strip plate that was inoculated, is incubated for 48 h at 30° C. The zone of inhibition at the lowest concentration of fluconazole is read as the MIC. The results, shown in FIG. 2, indicate synergy between the compound of formula (II) and fluconazole.

| Structure (SMILES) | MIC80 (A. fumigatus AF293) | MIC80 (A. fumigatus H11-20) | MIC80 (MDR A. fumigatus) | MIC80 (C. guilliermondii) | MIC80 (C. glabrata) | MIC80 (C. parapsilosis) | MIC80 (C. lusitaniae) | MIC80 (C. apicola) | MIC80 (C. krusei) | MIC80 (C. neoformans H99) | MIC80 (C. neoformans JEC-21) | MIC80 (C. albicans (CaMDR)) | MIC80 (C. albicans (SC5314)) | MIC80 (C. tropicalis) | toxicity (MTT) (HepG2 liver cell) | toxicity (MTT) (293T kidney cell) | toxicity (MTT) (NIH/3T3 Fibroblast cell) | interaction with fluconazole (E-test) (C. albicans (wild type)) |
| --- | --- | --- | --- | --- | --- | --- | --- | --- | --- | --- | --- | --- | --- | --- | --- | --- | --- | --- |
| CCC(C)n1ncn(-c2ccc(N3CCN(c4ccc(OCC5COC(Cn6cncn6)(c6ccc(Cl)cc6Cl)O5)cc4)CC3)cc2)c1=O (stereo not shown) [Itraconazole, reference compound] | 0.5 µg/mL (≈ 0.709 µM) | 0.5 µg/mL (≈ 0.709 µM) | > 100 µg/mL |  |  |  |  |  |  |  |  |  |  |  |  |  |  |  |
| Cc1c2cc3c(cc2cc2c4cc5c(cc4cc[n+]12)OCO5)OCO3 [compound 156627] | 0.5 µg/mL | 0.5 µg/mL | 0.5 µg/mL | 0.5 µg/mL | < 0.2 µg/mL | 1 µg/mL | < 0.2 µg/mL | 0.5 µg/mL | 0.5 µg/mL | 1 µg/mL | < 0.2 µg/mL | 0.05 µg/mL | 0.5 µg/mL | 0.5 µg/mL | 25 µg/mL | 25 µg/mL | 40 µg/mL | synergy |
| COc1cc2cc3c4cc5c(cc4cc[n+]3c(C)c2cc1OC)OCO5 [compound 160459] | 4 µg/mL | 4 µg/mL | 4 µg/mL | 4 µg/mL | 0.5 µg/mL | 8 µg/mL | 1 µg/mL | 4 µg/mL | 4 µg/mL | 8 µg/mL | 0.5 µg/mL | 0.1 µg/mL | 4 µg/mL | 4 µg/mL | 50 µg/mL | 60 µg/mL | 80 µg/mL |  |
| COc1cc2cc[n+]3c(C)c4cc5c(cc4cc3c2cc1OC)OCO5 [compound 156624] | 4 µg/mL | 4 µg/mL | 4 µg/mL | 4 µg/mL | 1 µg/mL | 8 µg/mL | 1 µg/mL | 4 µg/mL | 4 µg/mL | 8 µg/mL | 1 µg/mL | 0.2 µg/mL | 4 µg/mL | 4 µg/mL | 80 µg/mL | 80 µg/mL | >100 µg/mL |  |
| OC(Cn1cncn1)(Cn1cncn1)c1ccc(F)cc1F [Fluconazole, reference compound] |  |  |  | 2 µg/mL (≈ 6.53 µM) | 2 µg/mL (≈ 6.53 µM) | 1 µg/mL (≈ 3.27 µM) | 2 µg/mL (≈ 6.53 µM) | 0.25 µg/mL (≈ 0.816 µM) | 32 µg/mL (≈ 104 µM) | 4 µg/mL (≈ 13.1 µM) | 2 µg/mL (≈ 6.53 µM) | 32 µg/mL (≈ 104 µM) | 0.25 µg/mL (≈ 0.816 µM) | 0.5 µg/mL (≈ 1.63 µM) |  |  |  |  |
| COc1ccc2cc3c4cc5c(cc4cc[n+]3cc2c1OC)OCO5 [compound 403831] | 1 µg/mL | 1 µg/mL | 1 µg/mL | 1 µg/mL | 0.25 µg/mL | 2 µg/mL | 0.5 µg/mL | 1 µg/mL | 2 µg/mL | 0.5 µg/mL | 0.5 µg/mL | 0.1 µg/mL | 1 µg/mL | 1 µg/mL | 80 µg/mL | 80 µg/mL | 96 µg/mL |  |
| CCc1c2cc3c(cc2cc2c4cc5c(cc4cc[n+]12)OCO5)OCO3 [compound 157108] | 1 µg/mL | 1 µg/mL | 1 µg/mL | 2 µg/mL | 0.2 µg/mL | 2 µg/mL | 0.2 µg/mL | 1 µg/mL | 2 µg/mL | 2 µg/mL | 0.2 µg/mL | 0.2 µg/mL | 1 µg/mL | 2 µg/mL | 64 µg/mL | 70 µg/mL | 100 µg/mL |  |
